Laboratory results published in US6284768A, “Src family SH2 domain inhibitors” (Boehringer Ingelheim Pharmaceuticals, Inc., priority 1999, dated 2001).
Like-named read-outs stand apart in the source and are kept apart here.

Key:
[1] = target: T1, p56lck GST-SH2 (lck SH2 domain) (Homo sapiens, UniProt P06239); assay: Receptor-ligand equilibrium binding constants by surface plasmon resonance (biosensor), lck SH2 domain
T1 construct: GST (N)

[2] = test system: Inter-leukin 2 (IL-2) production by activated Human Primary T Lymphocytes; assay: Primary T cell assay: inhibition of IL-2 production by activated human primary CD4 positive T lymphocytes; type: cell-based; conditions: Homo sapiens, Table 5, mean IC50 value, CD4 positive T cells activated with anti-CD3/anti-CD28, IL-2 by ELISA, read-out: IC50 (blocking IL-2 production)
Procedure: Summary of Primary T Cell Assay.
Inhibitors of the lck SH2 domain were assayed for their ability to block Inter-leukin 2 (IL-2) production by activated Human Primary T Lymphocytes. Peripheral blood mononuclear cells were isolated from whole blood by centrifugation in ficoll-Pague partitioning medium. CD4 positive cells were purified using negative selection. […] The compounds, at the appropriate dilutions, were added, and the cells were incubated for 60 minutes at 37° C. The CD4 positive T cells were then activated by the addition of anti-CD3 (60 ng/mL), anti CD28 (500 ng/mL) and goat anti mouse IgG coated beads, and incubated overnight at 37° C. The cells were pelleted, and the supernatents assayed for IL-2 by ELISA.
As SH2 domain containing proteins are intracellular, any therapeutic agent must be able to cross biological membranes. […] These characteristics may be quantified by observing inhibition in IL-2 production in human blood CD4 positive T-lymphocytes after T cell receptor and CD28 cross-linking.

[3] = Table 1, compounds of formula (II)
[4] = Table 2, compounds of formula (III)

T1 sequence (P06239 127-224 limits assumed): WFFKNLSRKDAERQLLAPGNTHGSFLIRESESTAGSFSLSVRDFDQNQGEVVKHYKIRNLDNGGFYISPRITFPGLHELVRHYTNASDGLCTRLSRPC

SMILES	Kd [1, 3] [µM]	other results
Cc1ccn(CC2(c3ccccc3)CC2)c(=O)c1NC(=O)C(Cc1ccc(C(C)(C)C(=O)O)cc1)NC(=O)C(C)(C)c1ccc2ccccc2c1 (stereo not shown) [Compound 215]	5.9	IC50 ([2]; CD4 positive): 36 µM
Cc1ccn(Cc2ccc(OC(C)C)cc2)c(=O)c1NC(=O)[C@H](Cc1ccc(CC(=O)O)cc1)NC(=O)Cc1cccc2ccccc12 [Compound 51]	> 69	–
COc1ccc(Cn2ccc(C)c(NC(=O)[C@H](Cc3ccc(C(C)(C)C(=O)O)cc3)NC(=O)C(C)(C)c3ccc4ccccc4c3)c2=O)cc1 [Compound 107]	–	IC50 [2]: 48 µM
COc1ccc(Cn2ccc(C)c(NC(=O)[C@H](Cc3ccc(NC(=O)C(=O)O)cc3)NC(=O)c3csc(NS(=O)(=O)c4ccc(Cl)cc4)n3)c2=O)cc1 [Compound 14]	4.2	–
COc1ccc(Cn2ccc(C)c(NC(=O)[C@H](Cc3ccc(NC(=O)C(=O)O)cc3)NC(=O)Nc3cccc4ccccc34)c2=O)cc1 [Compound 9]	64.5	–
COc1ccc(Cn2ncc(C)c(NC(=O)C(Cc3ccc(C(C)(C)C(=O)O)cc3)NC(=O)Cc3ccccc3[N+](=O)[O-])c2=O)cc1 (stereo not shown) [Compound 247]	–	Kd [1, 4]: 5.2 µM
Cc1ccn(Cc2ccccc2)c(=O)c1NC(=O)[C@H](Cc1ccc(CC(=O)O)cc1)NC(=O)Cc1cccc2ccccc12 [Compound 18]	17.7	–
COCCOCn1ccc(C)c(NC(=O)C(Cc2ccc(C(C)(C)C(=O)O)cc2)NC(=O)Cc2cccc3ccccc23)c1=O (stereo not shown) [Compound 188]	45	–
COC1CCC(Cn2ccc(C)c(NC(=O)C(Cc3ccc(C(C)(C)C(=O)O)cc3)NC(=O)C(C)(C)c3ccc4ccccc4c3)c2=O)CC1 (stereo not shown) [Compound 235]	6.2	–
COc1ccc(Cn2ccc(C)c(NC(=O)[C@H](Cc3ccc(CC(=O)O)cc3)NC(=O)OCc3ccccc3)c2=O)cc1 [Compound 57]	15	–
Cc1ccn(CCc2ccccc2)c(=O)c1NC(=O)[C@H](Cc1ccc(CC(=O)O)cc1)NC(=O)Cc1cccc2ccccc12 [Compound 21]	30.5	–
COC1CCC(Cn2ccc(C)c(NC(=O)C(Cc3ccc(C(C)(C)C(=O)O)cc3)NC(=O)Cc3ccc(C(F)(F)F)cc3)c2=O)CC1 (stereo not shown) [Compound 148]	3.6	–
Cc1ccn(Cc2ccc(OC(F)(F)F)cc2)c(=O)c1NC(=O)[C@H](Cc1ccc(CC(=O)O)cc1)NC(=O)Cc1cccc2ccccc12 [Compound 53, 3-[2'-(S)-(1'"-Naphthyl)acetlyamino-3'-(4"-carboxymethyl)benzene]propanoylamino-1-(4-trifluoromethoxybenzyl)-4-methyl-2-pyridone]	12.7	–
COc1ccc(Cn2ncc(C)c(NC(=O)[C@H](Cc3ccc(CC(=O)O)cc3)NC(=O)Cc3cccc4ccccc34)c2=O)cc1 [Compound 243]	–	Kd [1, 4]: 35 µM
COc1ccc(Cn2ccc(C)c(NC(=O)[C@H](Cc3ccc(CC(=O)O)cc3)NC(=O)COc3cc4ccccc4cn3)c2=O)cc1 [Compound 86]	3.3	–
COc1ccc(Cn2ccc(C)c(NC(=O)[C@H](Cc3ccc(N(O)C(=O)C(=O)O)cc3)NC(=O)Cc3ccc(N(C)C)cc3)c2=O)cc1 [Compound 26]	4.3	–
COc1ccc(Cn2ccc(C)c(NC(=O)[C@H](Cc3ccc(CC(=O)O)cc3)NC(=O)C(C)(C)c3ccccc3)c2=O)cc1 [Compound 76]	8.6	–
COCCOCCn1ccc(C)c(NC(=O)C(Cc2ccc(C(C)(C)C(=O)O)cc2)NC(=O)Cc2ccc3ccccc3c2)c1=O (stereo not shown) [Compound 143]	6	–
CCCCCn1ccc(C)c(NC(=O)[C@H](Cc2ccc(CC(=O)O)cc2)NC(=O)Cc2cccc3ccccc23)c1=O [Compound 70]	24	–
COc1ccc(C(C)n2ccc(C)c(NC(=O)[C@H](Cc3ccc(CC(=O)O)cc3)NC(C)=O)c2=O)cc1 (stereo partly shown) [Compound 81]	23	–
Cc1ccn(CC2CCOC2)c(=O)c1NC(=O)C(Cc1ccc(C(C)(C)C(=O)O)cc1)NC(=O)Cc1cccc2ccccc12 (stereo not shown) [Compound 210]	15	–
COc1cc(Cn2ccc(C)c(NC(=O)C(Cc3ccc(C(C)(C)C(=O)O)cc3)NC(=O)Cc3ccc4ccccc4c3)c2=O)cc(OC)c1OC (stereo not shown) [Compound 157]	21	–
COc1ccc(Cn2ccc(C)c(NC(=O)[C@H](Cc3ccc(NC(=O)C(=O)O)cc3)NC(=O)Cc3csc(NC=O)n3)c2=O)cc1 [Compound 13]	4.6	–

Further lines, with some results ahead:

Kd [1, 3] [µM]	SMILES	other results
2.2	COc1ccc(Cn2c(C)cc(C)c(NC(=O)[C@H](Cc3ccc(C(C)(C)C(=O)O)cc3)NC(=O)Cc3ccc4ccccc4c3)c2=O)cc1 [Compound 219]	IC50 ([2]; CD4 positive): 70 µM
0.52	COc1ccc(Cn2ccc(C)c(NC(=O)C(Cc3ccc(C(C)(C)C(=O)O)cc3)NC(=O)Cc3cccc4ccccc34)c2=O)cc1 (stereo not shown) [Compound 169]	IC50 ([2]; CD4 positive): 116 µM
1.4	COc1ccc(Cn2ccc(C)c(NC(=O)[C@H](Cc3ccc(C(C)(C)C(=O)O)cc3)NC(=O)[C@@H](C)c3ccc(CC(C)C)cc3)c2=O)cc1 [Compound 127]	IC50 ([2]; CD4 positive): 52 µM
1.4	COc1ccc(Cn2ccc(C)c(NC(=O)C(Cc3ccc(C(C)(C)C(=O)O)cc3)NC(=O)C(C)(C)c3ccc(-c4ccccc4)cc3)c2=O)cc1 (stereo not shown) [Compound 159]	IC50 ([2]; CD4 positive): 25 µM
0.25	COc1ccc(Cn2ccc(C)c(NC(=O)[C@H](Cc3ccc(C(C)(C)C(=O)O)cc3)NC(=O)Cc3ccc(NCC(C)(C)C)cc3)c2=O)cc1 [Compound 132]	IC50 ([2]; CD4 positive): 141 µM
0.31	COc1ccc(Cn2ccc(C)c(NC(=O)C(Cc3ccc(C(C)(C)C(=O)O)cc3)NC(=O)Cc3ccc(C(C)(C)C)cc3)c2=O)cc1 (stereo not shown) [Compound 173]	IC50 ([2]; CD4 positive): 93 µM
1.7	COc1ccc(Cn2ccc(C)c(NC(=O)C(Cc3ccc(C(C)(C)C(=O)O)cc3)NC(=O)Cc3ccc(-c4ccccc4)cc3)c2=O)cc1 (stereo not shown) [Compound 158]	IC50 ([2]; CD4 positive): 75 µM
0.83	CCCCCCCn1ccc(C)c(NC(=O)C(Cc2ccc(C(C)(C)C(=O)O)cc2)NC(=O)Cc2ccc3ccccc3c2)c1=O (stereo not shown) [Compound 138]	IC50 ([2]; CD4 positive): 64 µM
0.68	CCC(C(=O)N[C@@H](Cc1ccc(C(C)(C)C(=O)O)cc1)C(=O)Nc1c(C)ccn(Cc2ccc(OC)cc2)c1=O)c1cccc2ccccc12 (stereo partly shown) [Compound 126]	IC50 ([2]; CD4 positive): 39 µM
0.78	COc1ccc(Cn2ccc(C)c(NC(=O)C(Cc3ccc(C(C)(C)C(=O)O)cc3)NC(=O)COc3cccc4c(N(C)C)cccc34)c2=O)cc1 (stereo not shown) [Compound 175]	IC50 ([2]; CD4 positive): 108 µM
0.42	COc1ccc(Cn2cc(Br)c(C)c(NC(=O)[C@H](Cc3ccc(C(C)(C)C(=O)O)cc3)NC(=O)C(C)(C)c3ccc4ccccc4c3)c2=O)cc1 [Compound 233]	–
0.43	COc1ccc(Cn2ccc(C)c(NC(=O)[C@H](Cc3ccc(C(C)(C)C(=O)O)cc3)NC(=O)Cc3c[nH]c4ccccc34)c2=O)cc1 [Compound 98]	–
2.1	COc1ccc(Cn2ccc(C)c(NC(=O)[C@H](Cc3ccc(NC(=O)C(=O)O)cc3)NC(=O)Cc3cccc(N(C)C)c3)c2=O)cc1 [Compound 49]	–
3.3	COc1ccc(Cn2ccc(C)c(NC(=O)[C@H](Cc3ccc(CC(=O)O)cc3)NC(=O)Cc3cccc(Oc4ccccc4)c3)c2=O)cc1 [Compound 61]	–
2.9	COc1ccc(Cn2ccc(C)c(NC(=O)[C@H](Cc3ccc(NC(=O)C(=O)O)cc3)NC(=O)Cc3sc(N)nc3-c3ccccc3)c2=O)cc1 [Compound 11]	–
3.2	Cc1ccn(C/C=C/c2ccccc2)c(=O)c1NC(=O)C(Cc1ccc(C(C)(C)C(=O)O)cc1)NC(=O)C(C)(C)c1ccc2ccccc2c1 (stereo not shown) [Compound 177]	–
1.8	COc1ccc(Cn2ccc(C)c(NC(=O)[C@H](Cc3ccc(NC(=O)C(=O)O)cc3)NC(=O)Cc3ccc(N(C)C)cc3)c2=O)cc1 [Compound 22]	–
1.9	COc1ccc(Cn2ccc(C)c(NC(=O)[C@H](Cc3ccc(NC(=O)C(=O)O)cc3)NC(=O)Cc3ccccc3)c2=O)cc1 [Compound 102]	–
0.13	COc1ccc(Cn2ccc(C)c(NC(=O)[C@H](Cc3ccc(C(C)(C)C(=O)O)cc3)NC(=O)Cc3ccc(N(C)C)cc3)c2=O)cc1 [Compound 99]	–
2.3	COc1ccc(Cn2ccc(C)c(NC(=O)[C@H](Cc3ccc(NC(=O)C(=O)O)cc3)NC(=O)Cc3ccc(-n4c(C)ccc4C)cc3)c2=O)cc1 [Compound 39]	–
1.2	COc1ccc(Cn2ccc(C)c(NC(=O)[C@H](Cc3ccc(NC(=O)C(=O)O)cc3)NC(=O)CN3CCc4ccccc4C3)c2=O)cc1 [Compound 29]	–
0.74	CCCCCCn1cc(C(=O)OC)c(C)c(NC(=O)C(Cc2ccc(C(C)(C)C(=O)O)cc2)NC(=O)Cc2ccc3ccccc3c2)c1=O (stereo not shown) [Compound 240]	–
3.1	COCCCCn1ccc(C)c(NC(=O)C(Cc2ccc(C(C)(C)C(=O)O)cc2)NC(=O)Cc2ccc3ccccc3c2)c1=O (stereo not shown) [Compound 237]	–
2.1	COc1ccc(Cn2ccc(C)c(NC(=O)[C@H](Cc3ccc(NC(=O)C(=O)O)cc3)NC(=O)N(C)c3cccc4ccccc34)c2=O)cc1 [Compound 25]	–
0.65	COc1ccc(Cn2ccc(C)c(NC(=O)[C@H](Cc3ccc(NC(=O)C(=O)O)cc3)NC(=O)Cc3cccc(Br)c3)c2=O)cc1 [Compound 37]	–
1.1	COc1ccc(Cn2ccc(C)c(NC(=O)[C@H](Cc3ccc(NC(=O)C(=O)O)cc3)NC(=O)Cc3c(C)[nH]c4ccccc34)c2=O)cc1 [Compound 28]	–
2.6	COc1ccc(Cn2ccc(C)c(NC(=O)[C@H](Cc3ccc(CC(=O)O)cc3)NC(=O)COc3nccc4ccccc34)c2=O)cc1 [Compound 85]	–
